# Values quoted from earlier work as cited in US20100284984A1, “ADENOSINE AND ITS MIMETICS. MODULATORS, TRANSPORT INHIBITORS, AND RECEPTOR AGONISTS AS A THERAPEUTIC TOOL TO REPLACE OR IMPROVE THE EFFICACY OF DEEP BRAIN STIMULATION” (University of Rochester, priority 2007, published 2010).
# Assays:
# Ecto-ATPase [1] = details: Chen et al.; cited from earlier work
# Ecto-ATPase [2] = details: range over Crack et al.; Dowd et al.; Stout et al.; cited from earlier work
# Ecto-ATPase [3] = details: Yegutkin et al., rat liver plasma membranes; cited from earlier work
compound,measurement,setting,value
Cc1ccc(C(=O)Nc2ccc(S(=O)(=O)O)c3cc(S(=O)(=O)O)cc(S(=O)(=O)O)c23)cc1NC(=O)c1cccc(NC(=O)Nc2cccc(C(=O)Nc3cc(C(=O)Nc4ccc(S(=O)(=O)O)c5cc(S(=O)(=O)O)cc(S(=O)(=O)O)c45)ccc3C)c2)c1 [suramin],Ki,Ecto-ATPase [1],44 µM
same,IC50,Ecto-ATPase [2],46 to 114 µM
same,pIC 50,Ecto-ATPase [3],4.57
